Our source for the EC50 values is patent publication US12281119B2, “Imidazo[2,1-f][1,2,4]triazin-4-amine derivatives as TLR7 agonist” (BEIGENE, LTD., priority 2019, dated 2025).

The target of the test is T1, human TLR7 (Homo sapiens, UniProt Q9NYK1).
T1 sequence (Q9NYK1 27-1049): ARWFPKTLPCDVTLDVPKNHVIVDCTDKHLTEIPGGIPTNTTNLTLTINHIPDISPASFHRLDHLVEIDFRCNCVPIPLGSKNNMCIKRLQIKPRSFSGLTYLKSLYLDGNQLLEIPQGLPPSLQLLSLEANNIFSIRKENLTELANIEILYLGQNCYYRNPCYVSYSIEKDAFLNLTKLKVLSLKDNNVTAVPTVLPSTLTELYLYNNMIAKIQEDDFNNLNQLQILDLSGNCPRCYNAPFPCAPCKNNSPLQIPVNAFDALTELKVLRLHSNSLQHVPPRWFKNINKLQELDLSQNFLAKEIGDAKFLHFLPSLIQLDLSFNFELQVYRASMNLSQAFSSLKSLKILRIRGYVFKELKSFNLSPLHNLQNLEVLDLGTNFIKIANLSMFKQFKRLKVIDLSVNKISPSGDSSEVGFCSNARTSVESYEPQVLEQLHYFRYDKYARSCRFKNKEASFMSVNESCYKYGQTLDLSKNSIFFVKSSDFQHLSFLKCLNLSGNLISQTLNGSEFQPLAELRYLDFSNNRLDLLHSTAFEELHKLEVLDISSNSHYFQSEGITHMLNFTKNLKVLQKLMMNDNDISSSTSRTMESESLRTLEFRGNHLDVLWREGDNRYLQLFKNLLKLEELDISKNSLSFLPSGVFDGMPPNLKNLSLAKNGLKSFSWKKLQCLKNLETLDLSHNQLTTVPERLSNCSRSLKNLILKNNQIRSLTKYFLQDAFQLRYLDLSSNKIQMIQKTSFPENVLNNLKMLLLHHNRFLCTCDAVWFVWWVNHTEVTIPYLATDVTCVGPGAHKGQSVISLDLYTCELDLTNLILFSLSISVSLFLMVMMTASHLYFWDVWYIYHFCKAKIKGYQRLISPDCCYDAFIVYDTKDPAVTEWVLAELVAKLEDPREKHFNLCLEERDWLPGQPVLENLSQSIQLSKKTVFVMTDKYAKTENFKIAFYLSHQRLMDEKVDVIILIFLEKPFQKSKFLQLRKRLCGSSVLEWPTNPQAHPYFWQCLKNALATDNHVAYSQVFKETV
As to the kind of experiment: HEK293-Blue hTLR7 reporter assay (QUANTI-BLUE, SEAP readout). Particulars: HEK-Blue-hTLR7 cells, QUANTI-BLUE assay (A1-A76), 24 hrs. Set-up: host or cells: HEK293 (HEK-Blue-hTLR7). The test is classed as cell-based. As to the method: HEK293-Blue hTLR7 Reporter Assay:
HEK-Blue-hTLR7 cell line (Invivogen, Cat. No. hkb-htlr7) was designed so that the expression of the secreted embryonic alkaline phosphatase (SEAP) was induced by activating NF-κ and AP-1 via stimulating human TLR7 with TLR7 agonists.
HEK-Blue-hTLR7 cells were seeded at a density of 4×10^4 cells/well in a volume of 180 μL in a 96-well plate in DMEM (Cat. No. 11965-092) supplemented with 10% (v/v) heat-inactivated fetal bovine serum (FBS) (Gibco, 10099-1441), 100 U/ml penicillin and 100 μg/ml streptomycin (Gibco, 15140122) containing […], […] and 10% (v/v) heat-inactivated fetal bovine serum. The cells were settled for 5 hrs, then treated with increasing amounts of tested compounds at 37° C. for 24 hrs. Then 20 μL of the supernatant from each well was incubated with 180 uL Quanti-blue substrate solution at 37° C. for 10-30 mins before the activity of the SEAP was determined at 620-655 nm using a spectrophotometer. The EC50 value for each compound was calculated with GraphPad Prism software using the sigmoidal dose-response function.
Background: In a reporter assay the amount or activity of a reporter protein is the signal.

Consider `CCCCOc1nc(N)c2ncc(Cc3ccc(CC4CCNCC4)cc3)n2n1` [Compound A33, 2-butoxy-7-(4-(piperidin-4-ylmethyl)benzyl)imidazo[2,1-f][1,2,4]triazin-4-amine], for which the EC50 (commonly the concentration that produces a half-maximal response) amounted to 1060 nM.
Take `CCCCOc1nc(N)c2ncc(Cc3cnc(OCCCN(C)C)c(Cl)c3)n2n1` [Compound A34, 2-butoxy-7-((5-chloro-6-(3-(dimethylamino)propoxy)pyridin-3-yl)methyl)imidazo[2,1-f][1,2,4]triazin-4-amine]: a half-maximal response (EC50) required 3370 nM.
The compound `CCCCOc1nc(N)c2ncc(Cc3ccc(OCCCN(C)C)c(F)c3)n2n1` [Compound A35, 2-butoxy-7-(4-(3-(dimethylamino)propoxy)-3-fluorobenzyl)imidazo[2,1-f][1,2,4]triazin-4-amine] came in with a half-maximal effective concentration (EC50) of 2070 nM.
The compound `CCCCOc1nc(N)c2ncc(Cc3ccc(OCCCN(C)C)cc3F)n2n1` [Compound A36, 2-butoxy-7-(4-(3-(dimethylamino)propoxy)-2-fluorobenzyl)imidazo[2,1-f][1,2,4]triazin-4-amine] yielded a concentration for a half-maximal effect (EC50) of 880 nM.
Under `CCCCOc1nc(N)c2ncc(Cc3ccc(OCCN)nc3)n2n1` [Compound A37, 7-((6-(2-aminoethoxy)pyridin-3-yl)methyl)-2-butoxyimidazo[2,1-f][1,2,4]triazin-4-amine] stands more than 10000 nM; under `CCCCOc1nc(N)c2ncc(Cc3ccc(OC4C[C@H]5CC[C@@H](C4)N5)cc3F)n2n1` (stereo partly drawn) [Compound A38, 7-(4-(((1R,5S)-8-azabicyclo[3.2.1]octan-3-yl)oxy)-2-fluorobenzyl)-2-butoxyimidazo[2,1-f][1,2,4]triazin-4-amine], 1860 nM.
Under `CCCCOc1nc(N)c2ncc(Cc3ccc(CN4CCN(C(=O)CN(C)C)CC4)cc3)n2n1` [Compound A39, 1-(4-(4-((4-amino-2-butoxyimidazo[2,1-f][1,2,4]triazin-7-yl)methyl)benzyl)piperazin-1-yl)-2-(dimethylamino)ethan-1-one] stands 543 nM; under `CCCCOc1nc(N)c2ncc(Cc3cnc(OC4CCNCC4)c(Cl)c3)n2n1` [Compound A40, 2-butoxy-7-((5-chloro-6-(piperidin-4-yloxy)pyridin-3-yl)methyl)imidazo[2,1-f][1,2,4]triazin-4-amine], 602 nM.
The result for `CCCCOc1nc(N)c2ncc(Cc3ccc(CN4C[C@@H]5C[C@H]4CN5)cc3)n2n1` [Compound A41, 7-(4-(((1S,4S)-2,5-diazabicyclo[2.2.1]heptan-2-yl)methyl)benzyl)-2-butoxyimidazo[2,1-f][1,2,4]triazin-4-amine] reads 1590 nM; that for `CCCCOc1nc(N)c2ncc(Cc3ccc(CCN4CCCC4)cc3)n2n1` [Compound A42, 2-butoxy-7-(4-(2-(pyrrolidin-1-yl)ethyl)benzyl)imidazo[2,1-f][1,2,4]triazin-4-amine], 1380 nM; that for `CCCCOc1nc(N)c2ncc(Cc3ccc(CN4CCC(N(C)C)C4)cc3)n2n1` (stereo not shown) [Compound A44, 2-butoxy-7-(4-((3-(dimethylamino)pyrrolidin-1-yl)methyl)benzyl)imidazo[2,1-f][1,2,4]triazin-4-amine], 1010 nM.
Compound `CCCCOc1nc(N)c2ncc(Cc3cnc(OCC(C)(C)CN(C)C)c(Cl)c3)n2n1` [Compound A45, 2-butoxy-7-((5-chloro-6-(3-(dimethylamino)-2,2-dimethylpropoxy)pyridin-3-yl)methyl)imidazo[2,1-f][1,2,4]triazin-4-amine] registered an EC50 of 3840 nM.
Under `CCCCOc1nc(N)c2ncc(Cc3ccc(CN)cc3)n2n1` [Compound A46, 7-(4-(aminomethyl)benzyl)-2-butoxyimidazo[2,1-f][1,2,4]triazin-4-amine] stands more than 10000 nM; under `CCCCOc1nc(N)c2ncc(Cc3ccc(CN4CCC(Oc5ccccc5)CC4)cc3)n2n1` [Compound A47, 2-butoxy-7-(4-((4-phenoxypiperidin-1-yl)methyl)benzyl)imidazo[2,1-f][1,2,4]triazin-4-amine], more than 10000 nM; under `Cc1cc(COc2nc(N)c3ncc(Cc4ccc(CN5CCCC5)cc4)n3n2)no1` [Compound A48, 2-((5-methylisoxazol-3-yl)methoxy)-7-(4-(pyrrolidin-1-ylmethyl)benzyl)imidazo[2,1-f][1,2,4]triazin-4-amine], more than 10000 nM.
The compound `CCCCOc1nc(N)c2ncc(Cc3ccc(OC4C[C@H]5CC[C@@H](C4)N5CC)cc3F)n2n1` (stereo partly drawn) [Compound A49, 2-butoxy-7-(4-(((1R,5S)-8-ethyl-8-azabicyclo[3.2.1]octan-3-yl)oxy)-2-fluorobenzyl)imidazo[2,1-f][1,2,4]triazin-4-amine] came in with a concentration giving a half-maximal response (EC50) of 4320 nM.
The compound `CCCCOc1nc(N)c2ncc(Cc3ccc(OC)cn3)n2n1` [Compound A50, 2-butoxy-7-((5-methoxypyridin-2-yl)methyl)imidazo[2,1-f][1,2,4]triazin-4-amine] came in with a concentration giving a half-maximal response (EC50) of more than 10000 nM.
The result for `CCCCOc1nc(N)c2ncc(Cc3cccc(OC)n3)n2n1` [Compound A51, 2-butoxy-7-((6-methoxypyridin-2-yl)methyl)imidazo[2,1-f][1,2,4]triazin-4-amine] reads more than 10000 nM; that for `Nc1nc(N)c2ncc(Cc3ccc(CN4CCCC4)cc3)n2n1` [Compound A52, 7-(4-(pyrrolidin-1-ylmethyl)benzyl)imidazo[2,1-f] [1,2,4]triazine-2,4-diamine], more than 10000 nM.
The result for `CCCCOc1nc(N)c2ncc(Cc3ccc(OCC(C)(C)CN(C)C)nc3)n2n1` [Compound A53, 2-butoxy-7-((6-(3-(dimethylamino)-2,2-dimethylpropoxy)pyridin-3-yl)methyl)imidazo[2,1-f][1,2,4]triazin-4-amine] reads 1430 nM; that for `CC(C)COc1nc(N)c2ncc(Cc3ccc(CN4CCCC4)cc3)n2n1` [Compound A54, 2-isobutoxy-7-(4-(pyrrolidin-1-ylmethyl)benzyl)imidazo[2,1-f][1,2,4]triazin-4-amine], more than 10000 nM; that for `CCCCOc1nc(N)c2ncc(Cc3ncccc3OC)n2n1` [Compound A55, 2-butoxy-7-((3-methoxypyridin-2-yl)methyl)imidazo[2,1-f][1,2,4]triazin-4-amine], more than 10000 nM.
`CCCCOc1nc(N)c2ncc(C(O)c3ncccc3OC)n2n1` (stereo not shown) [Compound A56, (4-amino-2-butoxyimidazo[2,1-f][1,2,4]triazin-7-yl)(3-methoxypyridin-2-yl)methanol] registered a half-maximal effective concentration (EC50) of more than 10000 nM.
As for `CCCCOc1nc(N)c2ncc(Cc3ccc(OCCCN(C)C)c(C(=O)OC)c3)n2n1` [Compound A57, methyl 5-((4-amino-2-butoxyimidazo[2,1-f][1,2,4]triazin-7-yl)methyl)-2-(3-(dimethylamino)propoxy)benzoate], the concentration for a half-maximal effect (EC50) is 375 nM.
`CCCCOc1nc(N)c2ncc(Cc3ccc(OCCN(C)C(C)=O)nc3)n2n1` [Compound A59, N-(2-((5-((4-amino-2-butoxyimidazo[2,1-f][1,2,4]triazin-7-yl)methyl)pyridin-2-yl)oxy)ethyl)-N-methylacetamide] showed an EC50 of more than 10000 nM.
The result for `CCCCOc1nc(N)c2ncc(Cc3ccc(OC4CCN(CC)C4)cc3F)n2n1` (stereo not shown) [Compound A60, 2-butoxy-7-(4-((1-ethylpyrrolidin-3-yl)oxy)-2-fluorobenzyl)imidazo[2,1-f][1,2,4]triazin-4-amine] reads 246 nM; that for `CCCCOc1nc(N)c2ncc(Cc3ccc(OC4CCNC4)cc3F)n2n1` (stereo not shown) [Compound A61, 2-butoxy-7-(2-fluoro-4-(pyrrolidin-3-yloxy)benzyl)imidazo[2,1-f][1,2,4]triazin-4-amine], 183 nM; that for `CCCCOc1nc(N)c2ncc(Cc3ccc(Cn4cncn4)cc3)n2n1` [Compound A62, 7-(4-((1H-1,2,4-triazol-1-yl)methyl)benzyl)-2-butoxyimidazo[2,1-f][1,2,4]triazin-4-amine], more than 10000 nM.
